The values that follow come from patent publication US10391180B2, “Self-assembling complex for targeting chemical agents to cells” (CEDARS-SINAI MEDICAL CENTER, priority 2007, dated 2019).

The subject of data set [1] is hearts of mice. The experiment in a line: Cardiac tissue histology and echocardiography. The format is in vivo. The text has this:
(§1) FIGS. 12 (A)-(D) illustrates comparison of HerDox and Dox on (A) tumor growth, (B) animal weight, (C) cardiac tissue, and (D) cardiac function.
At 25 days following injections, tumors and organs were harvested and processed for histochemistry. It is established that Dox can induce acute and long-term cardiotoxicity, therefore, the inventors examined the hearts of mice treated with HerDox or Dox.

The subject of data set [2] is HER2+ tumors. The experiment in a line: HerDox vs Dox biodistribution by Dox fluorescence imaging. Format: in vivo, mice. Here is the method: FIGS. 11 (A)-(B) illustrates preferential targeting of HerDox to HER2+ tumors. Tumor-bearing mice were injected with 0.75 nmoles of HerDox or Dox via the tail vein and imaged with a custom small animal imager. FIG. 11 (A) depicts imaging of live mice after IV delivery of HerDox. Tumors are indicated by arrows. FIG. 11 (B) depicts imaging of tumors and tissues harvested at 3 h after injection of HerDox or Dox. Fluorescence signal from Dox is pseudo-colored according to the color bar, with a shift toward 100 indicating high fluorescence intensity. FIG. 11 (B) illustrates a comparison of the targeted delivery of Dox to HER2+ breast cancer cells with minimal delivery to other organs and tissues using a delivery system in accordance with an embodiment of the present invention (left panel), as compared with Dox administered alone (right panel).
Dox emits a red fluorescence upon appropriate wavelength excitation, which can be used to detect biodistribution after systemic delivery of HerDox. Mice bearing 4-week old) tumors (˜700-800 mm^3) received a single tail vein injection of Dox or HerDox ([…] with respect to Dox cone) and images of live mice captured in real time, or of organs/tissues harvested at ˜3 h postinjection were acquired using a customized macro-illumination and detection system. Fluorescence was evident throughout the body at 10 min after HerDox injection, then quickly accumulated at the tumors by 20 min and remained detectable in the tumors up to 100 min after injection (FIG. 11 (A)).

The test system of data set [3] is MDA-MB-435 cells. The experiment in a line: Intracellular translocation in live cells, Dox fluorescence microscopy. Format: cell-based. As for the experimental part:
FIGS. 14 (A)-(B) illustrates comparison of HerDox and Dox intracellular translocation and targets in live cells. MDA-MB-435 cells were incubated with HerDox or free Dox (0.5 uM) at 37° C. Live (unfixed) cells were imaged by brightfield and fluorescence as depicted in […], or DIC and confocal fluorescence, as depicted in FIG. 14 (B), microscopy. Dox is indicated by red or magenta pseudocolor.
To understand the mechanism of HerDox mediated tumor cell death, the inventors examined HER2+ cells microscopically after treatment with HerDox, using Dox fluorescence to detect intracellular location. […] These dynamics, in addition to earlier targeting results, support a receptor-mediated HerDox entry mechanism. Even the intranuclear pattern of Dox when delivered by HerPBK10 differs from free Dox.

For data set [4], the system named is bilateral flank tumors (HER2+). The experiment in a line: In vivo tumor toxicity, tumor growth. Further details: species or system mice. To be noted: daily tail vein injections, 0.004 mg/kg Dox conc, 7 consecutive days. As for the experimental part:
as §1
To assess in vivo tumor toxicity, mice bearing 3-4 week bilateral flank tumors began receiving daily tail vein injections of Dox or HerDox (0.004 mg/kg with respect to Dox conc), HerPBK10 alone (at equivalent protein concentration to HerDox) or saline for 7 consecutive days.

Data set [5] relates to MDA-MB-435 (HER2+) cells. The experiment in a line: Targeted toxicity, MTT assay, separate dishes. Format: cell-based. Particulars: Dox 0.5 uM; HerPBK10 0.1 uM; day 3. Here is the method:
(§2) FIG. 7 illustrates targeted toxicity. Each cell line was exposed to HerDox (0.5 uM Dox cone), Dox alone (0.5 uM), or HerPBK10 alone for 4 h at 37° C. in complete (i.e. serum-containing) media, followed by aspiration to remove free conjugate, and addition of fresh medium while cells are grown continuously. Cell titer was determined by metabolic (i.e. MTT) assay. FIG. 7 upper panel illustrates the effect of HerDox on MDA-MB-231 (HER2−) and MDA-MB-435 (HER2+) cell survival. Relative surviving cell numbers are represented as a % of corresponding untreated cells. FIG. 7 lower panel illustrates comparison of HerDox, Dox alone, or HerPBK10 alone on HER2− and HER2+ cell survival. Relative survival (as % of untreated cells) is shown for Day 3 of treatment.
(§3) The inventors compared the effect of HerDox or Dox alone at equivalent dosages (0.5 uM with respect to Dox concentration) on HER2+ and HER2− breast cancer cells in separate dishes. By three days, HerDox reduced HER2+ cell numbers by over 75% whereas HER2− cell survival was unaffected (FIG. 7). […] These findings emphasize the importance of targeting by showing that the untargeted drug affects nontarget (i.e. HER2−) cells. Importantly, the protein carrier, HerPBK10, alone at the equivalent concentration of protein in HerDox (0.1 uM) had no effect on either cell line (FIG. 7), including a lack of proliferation induction. To test receptor targeting, the inventors used free heregulin ligand (Her or eHRG) as a competitive inhibitor. […] As a final in vitro challenge, the inventors tested whether HerDox induces toxicity specifically to HER2+ cells in a mixed culture of HER2+ and HER2− breast cancer cells. To do this, the inventors produced a HER2− cell line tagged with green fluorescent protein (GFP) for cell identification in the mixed culture (FIG. 9 (A)). […] Altogether, these findings indicate that HerDox has the capacity to preferentially target toxicity to HER2+ cells. […] Moreover, the preferential cell killing of HER2+ cells in a mixed culture of HER2+ and HER2− cells implies that after death and lysis of the target cells, the Dox released into those cells is incapable of continuing to induce toxicity to HER2− cells. To further confirm the stability of HerDox in cell culture, HerDox was recovered from culture media in separate experiments at indicated time points and electrophoresed on an agarose gel, which was then illuminated by UV to detect Dox and stained with Coomassie blue to detect HerPBK10 protein (FIG. 9 (C)). […] Co-migration of HerPBK10 bands further verified that the conjugates remained intact in the cell media.
For orientation: Tetrazolium dyes change colour on reduction, which living cells bring about.

Data set [6] concerns MDA-MB-231 (HER2−) cells. Put plainly: Targeted toxicity, MTT assay, separate dishes. To be noted: HerDox/Dox 0.5 uM Dox; HerPBK10 0.1 uM; day 3. Format: cell-based. As for the experimental part: as §2, §3
Data set [7] has as its system MDA-MB-435 cells. The experiment in a line: HerPBK10 binding to cells in human serum, ELISA. To be noted: 1.2 ug/well, cells exposed 2 hours to human sera. The format is cell-based. Here is the method:
FIG. 16 illustrates HerPBK10 binding to MDA-MB-435 cells in human serum from HER2+ or HER2− breast cancer patients. Cells were treated with HerPBK10 (1.2 ug/well) in media containing human serum from each of 5 HER2+ breast cancer patients or age matched HER2− controls, both obtained pre-chemotherapy treatment. Cells were processed for ELISA using an antibody directed at HerPBK10. Control (C) wells receiving HerPBK10 in media containing bovine serum without or with 100× molar excess competitive ligand inhibitor (+ Her) are indicated by open bars. Patient sera were provided by the WCRI tissue bank at Cedars-Sinai Medical Center. N=3 wells per treatment.
To determine whether HerPBK10 can compete with circulating ligand that may be present in serum, the inventors tested HerPBK10 binding to HER2+ breast cancer cells in human serum obtained from HER2+ patients. The Women's Cancer Research Institute at Cedars-Sinai occasionally acquires limited quantities of patient serum, of which sera from HER2+ patients comprises an even smaller minority. […] Here, the inventors replaced the bovine serum in the routine culturing media with the human serum obtained from the acquired patient samples to assess whether the human serum, especially from HER2+ patients, inhibits cell binding. […]
A general note: An ELISA detects its analyte on a solid surface through an enzyme-linked reagent.

The conditions of data set [8]: in the presence of serum; cited from earlier work.
[9] abbreviates: harvested at 3 h after injection.

As for `COc1cccc2c1C(=O)c1c(O)c3c(c(O)c1C2=O)C[C@@](O)(C(=O)CO)C[C@@H]3O[C@H]1C[C@H](N)[C@H](O)[C@H](C)O1` [Dox, doxorubicin, reference compound], in data set [1] (25 days following injections), the “gross appearance of hearts” value is “slightly enlarged and dilated”; the “myocardium morphology (histochemistry)” value is “focal degeneration, myofibrillar loss, increased cytosoplasmic vacuolization, and nuclear condensation or dissolution”. Further, in data set [1] (treated mice), the “echocardiogram: stroke volume, cardiac output, left ventricular internal dimension and volume” value was “modest to marked reductions”. For the same compound, in data set [2] (setting [9]), the “Dox fluorescence in kidneys” value was “detectable fluorescence”, the “Dox fluorescence in liver” value was “detectable fluorescence” and the “Dox fluorescence in tumors” value is “detectable fluorescence”. The “Dox fluorescence in lungs and skeletal muscle” value in data set [2] (harvested ~3 h after injection, equivalent dose of Dox) is “Lower levels of fluorescence”. Also, the “intracellular location of Dox fluorescence” value in data set [3] (0.5 uM, 0 min of uptake) is recorded as “inside the cell at the nuclear periphery”. For the same compound, in data set [3] (live cells, confocal), the “intranuclear pattern of Dox” value is given as “accumulates in the cell nucleus”. The tumor growth result in data set [4] was “slows tumor growth”. Also, the “effect on HER2+ cell numbers” value in data set [5] is “reduced both HER2+ and HER2− cells by the same order of magnitude”. In addition, the “effect on HER2− cell survival” value in data set [6] is “reduced both HER2+ and HER2− cells by the same order of magnitude”.

For “HerPBK10: receptor binding domain of heregulin fused to adenovirus penton base protein modified by a C-terminal decalysine”, in data set [7], the “cell binding in serum from HER2+ patients, HER2− patients, or bovine serum” value was “no significant differences”. Further, the “receptor targeting under physiological conditions” value in data set [8] is listed as “retains receptor targeting”. Besides, the tumor growth result in data set [4] is given as “no effect”. Also, in data set [5], the “effect on HER2+ cell numbers” value is given as “no effect”. Moreover, in data set [6], the “effect on HER2− cell survival” value is “no effect”.
